Data from patent EP2100894A1, “Pyridopyrimidines used as Plk1 (polo-like kinase) inhibitors” (4SC AG, priority 2008, dated 2009).

Target: T1, PIk1 (Homo sapiens, UniProt P53350)
T1 construct: His tag (histidine tag) (N); made in house; host or cells: SF9 insect cells
Experiment: PIk1 kinase activity inhibition assay (33P incorporation into alpha casein, flash plates)
Assay type: biochemical
Conditions: recombinant N-terminally histidine-tagged PIk1, alpha casein as substrate, 100 nM Li-ATP, 80 minutes at 30°C
Procedure: The inhibition of PIk1 kinase activity can be measured using recombinant PIk1 protein expressed as an N-terminally histidine-tagged protein in SF9 insect cells and alpha casein as substrate. The PIk1 assay is run in 96 well plates by incubating 50 to 100 ng per well recombinant PIk1, 500 ng per well alpha casein (Sigma, # C-6780) as substrate, 10 µl of compound of invention (test compounds were dissolved as 20 mM solutions in dimethylsulfoxide (DMSO) and subsequently diluted), and 100 nM Li-ATP (including ^33P-ATP) in 100 µl of reaction buffer ([…], pH 7.5; 3 mM MgCl2; 3 mM MnCl2; 3 µM Na-Orthovanadat; 1 mM DTT; 1 µg/ml PEG 8000) for 80 minutes at 30°C. The reactions are terminated by adding 100 µl stopping buffer (2% H3PO4 for 5 minutes) and are washed 3 times with washing solution (0,9% NaCl). Determining ^33P incorporated into the protein substrate alpha casein, the detection is based on the adhesion of the phosphorylated protein to the surface of scintillator-coated flash plates (Perkin Elmer, USA; # SMP-200). Phosphorylation of alpha casein is measured by counting the radioactivity bound to the plate for 60 sec. using a plate reader (Perkin Elmer, USA; Wallac Microbeta). By this method, the IC50 value of the PIk1 inhibition is determined as described above. […]

T1 sequence (P53350 whole entry): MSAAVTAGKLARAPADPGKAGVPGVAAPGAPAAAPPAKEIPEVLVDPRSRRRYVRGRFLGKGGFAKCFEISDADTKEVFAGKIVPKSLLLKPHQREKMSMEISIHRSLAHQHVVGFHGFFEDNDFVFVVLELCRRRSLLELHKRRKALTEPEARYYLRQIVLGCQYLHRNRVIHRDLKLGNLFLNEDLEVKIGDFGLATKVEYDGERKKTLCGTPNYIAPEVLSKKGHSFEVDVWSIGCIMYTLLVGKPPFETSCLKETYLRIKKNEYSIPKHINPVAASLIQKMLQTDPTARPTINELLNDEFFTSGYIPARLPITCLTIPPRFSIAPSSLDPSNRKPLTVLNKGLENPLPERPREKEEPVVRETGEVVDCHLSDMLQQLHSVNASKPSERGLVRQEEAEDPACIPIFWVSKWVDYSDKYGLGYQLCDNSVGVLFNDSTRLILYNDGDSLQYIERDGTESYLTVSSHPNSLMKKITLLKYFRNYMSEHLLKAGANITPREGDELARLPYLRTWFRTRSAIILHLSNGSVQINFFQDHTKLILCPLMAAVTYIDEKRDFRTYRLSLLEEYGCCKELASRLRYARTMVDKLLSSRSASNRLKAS

Row | Compound | IC50
1 | C=C(C)c1c(OC)c(=O)n(C)c2cnc(Nc3ccc(C(=O)NC4CCN(C)CC4)cc3OC)nc12 [Example 22, 4-[(8-isopropenyl-7-methoxy-5-methyl-6-oxo-5,6-dihydropyrido[3,2-d]pyrimidin-2-yl)amino]-3-methoxy-N-(1-methylpiperidin-4-yl)benzamide] | < 0.1 µM
2 | COc1cc(C(=O)NC2CCN(C)CC2)ccc1Nc1ncc2c(n1)c(CC1=CCOC1)c(OC)c(=O)n2C [Example 23, 4-{[8-(2,5-dihydrofuran-3-ylmethyl)-7-methoxy-5-methyl-6-oxo-5,6-dihydropyrido[3,2-d]pyrimidin-2-yl]amino}-3-methoxy-N-(1-methylpiperidin-4-yl)benzamide] | < 1 µM
3 | COc1cc(C(=O)NC2CCN(C)CC2)ccc1Nc1ncc2c(n1)c(C(C)C)c(OC)c(=O)n2C [Example 24, 4-[(8-isopropyl-7-methoxy-5-methyl-6-oxo-5,6-dihydropyrido[3,2-d]pyrimidin-2-yl)amino]-3-methoxy-N-(1-methylpiperidin-4-yl)benzamide] | < 1 µM
4 | C/C=C/c1c(OC)c(=O)n(C)c2cnc(Nc3ccc(C(=O)NC4CCN(CC)CC4)cc3OC)nc12 [Example 25, N-(1-ethylpiperidin-4-yl)-3-methoxy-4-({7-methoxy-5-methyl-6-oxo-8-[(1E)-prop-1-en-1-yl]-5,6-dihydropyrido[3,2-d]pyrimidin-2-yl}amino)benzamide] | < 1 µM
5 | C/C=C/c1c(OC)c(=O)n(C)c2cnc(Nc3ccc(C(=O)NCC4CCN(C)CC4)cc3OC)nc12 [Example 26, 3-methoxy-4-({7-methoxy-5-methyl-6-oxo-8-[(1E)-prop-1-en-1-yl]-5,6-dihydropyrido[3,2-d]pyrimidin-2-yl}amino)-N-[(1-methylpiperidin-4-yl)methyl]benzamide] | < 0.1 µM
6 | C/C=C/c1c(OCC2CC2)c(=O)n(C)c2cnc(Nc3ccc(C(=O)NC4CCN(C)CC4)cc3OC)nc12 [Example 27, 4-({7-(cyclopropylmethoxy)-5-methyl-6-oxo-8-[(1E)-prop-1-en-1-yl]-5,6-dihydropyrido[3,2-d]pyrimidin-2-yl}amino)-3-methoxy-N-(1-methylpiperidin-4-yl)benzamide] | < 0.1 µM
7 | C/C=C/c1c(OC)c(=O)n(C)c2cnc(Nc3ccc(C(=O)Nc4cccnc4)cc3OC)nc12 [Example 28, 3-methoxy-4-({7-methoxy-5-methyl-6-oxo-8-[(1E)-prop-1-en-1-yl]-5,6-dihydropyrido[3,2-d]pyrimidin-2-yl}amino)-N-pyridin-3-ylbenzamide] | < 1 µM
8 | C/C=C/c1c(OC)c(=O)n(C)c2cnc(Nc3ccc(C(=O)N[C@@H](C)Cc4c[nH]cn4)cc3OC)nc12 [Example 29, N-[(1S)-2-(1H-imidazol-4-yl)-1-methylethyl]-3-methoxy-4-({7-methoxy-5-methyl-6-oxo-8-[(1E)-prop-1-en-1-yl]-5,6-dihydropyrido[3,2-d]pyrimidin-2-yl}amino)benzamide] | < 0.1 µM
9 | CCOc1c(-c2ccsc2)c2nc(Nc3ccc(C(=O)NC4CCN(C)CC4)cc3OC)ncc2n(C)c1=O [Example 30, 4-{[7-ethoxy-5-methyl-6-oxo-8-(3-thienyl)-5,6-dihydropyrido[3,2-d]pyri-midin-2-yl]amino}-3-methoxy-N-(1-methylpiperidin-4-yl)benzamide] | < 0.01 µM
10 | COc1cc(C(=O)NC2CCN(C)CC2)ccc1Nc1ncc2c(n1)c(-c1ccsc1)c(OC(C)C)c(=O)n2C [Example 31, 4-{[7-isopropoxy-5-methyl-6-oxo-8-(3-thienyl)-5,6-dihydropyrido[3,2-d]pyrimidin-2-yl]amino}-3-methoxy-N-(1-methylpiperidin-4-yl)benzamide] | < 0.1 µM
11 | COc1cc(C(=O)NC2CCN(C)CC2)ccc1Nc1ncc2c(n1)c(-c1ccsc1)c(OCC1CC1)c(=O)n2C [Example 32, 4-{[7-(cyclopropylmethoxy)-5-methyl-6-oxo-8-(3-thienyl)-5,6-dihydro-pyrido[3,2-d]pyrimidin-2-yl]amino}-3-methoxy-N-(1-methylpiperidin-4-yl)benzamide] | < 0.1 µM
12 | COc1cc(C(=O)NC2CCN(C)CC2)ccc1Nc1ncc2c(n1)c(-c1cscc1C)c(OC)c(=O)n2C [Example 33, 3-methoxy-4-{[7-methoxy-5-methyl-8-(4-methyl-3-thienyl)-6-oxo-5,6-dihydropyrido[3,2-d]pyrimidin-2-yl]amino}-N-(1-methylpiperidin-4-yl)benzamide] | < 1 µM
13 | COc1cc(C(=O)NC2CCN(C)CC2)ccc1Nc1ncc2c(n1)c(-c1cncnc1)c(OC)c(=O)n2C [Example 34, 3-methoxy-4-[(7-methoxy-5-methyl-6-oxo-8-pyrimidin-5-yl-5,6-dihydro-pyrido[3,2-d]pyrimidin-2-yl)amino]-N-(1-methylpiperidin-4-yl)benzamide] | < 1 µM
14 | COc1cc(C(=O)NC2CCN(C)CC2)ccc1Nc1ncc2c(n1)c(-c1cnn(C)c1)c(OC)c(=O)n2C [Example 35, 3-methoxy-4-{[7-methoxy-5-methyl-8-(1-methyl-1H-pyrazol-4-yl)-6-oxo-5,6-dihydropyrido[3,2-d]pyrimidin-2-yl]amino}-N-(1-methylpiperidin-4-yl)benzamide] | < 1 µM
15 | CCC(C)Oc1c(-c2ccsc2)c2nc(Nc3ccc(C(=O)NC4CCN(C)CC4)cc3OC)ncc2n(C)c1=O (stereo not shown) [Example 36, 4-{[7-sec-butoxy-5-methyl-6-oxo-8-(3-thienyl)-5,6-dihydropyrido[3,2-d]pyrimidin-2-yl]amino}-3-methoxy-N-(1-methylpiperidin-4-yl)benzamide] | < 0.1 µM
16 | CCOc1c(C2CC2)c2nc(Nc3ccc(C(=O)NC4CCN(C)CC4)cc3OC)ncc2n(C)c1=O [Example 37, 4-[(8-cyclopropyl-7-ethoxy-5-methyl-6-oxo-5,6-dihydropyrido[3,2-d]pyrimidin-2-yl)amino]-3-methoxy-N-(1-methylpiperidin-4-yl)benzamide] | < 0.1 µM
17 | COc1cc(C(=O)NC2CCN(C)CC2)ccc1Nc1ncc2c(n1)c(C1CC1)c(OCC1CC1)c(=O)n2C [Example 38, 4-{[8-cyclopropyl-7-(cyclopropylmethoxy)-5-methyl-6-oxo-5,6-dihydro-pyrido[3,2-d]pyrimidin-2-yl]amino}-3-methoxy-N-(1-methylpiperidin-4-yl)benzamide] | < 0.01 µM
18 | COc1cc(C(=O)NC2CCN(C)CC2)ccc1Nc1ncc2c(n1)c(-c1ccoc1)c(OCC1CC1)c(=O)n2C [Example 39, 4-{[7-(cyclopropylmethoxy)-8-(3-furyl)-5-methyl-6-oxo-5,6-dihydro-pyrido[3,2-d]pyrimidin-2-yl]amino}-3-methoxy-N-(1-methylpiperidin-4-yl)benzamide] | < 0.01 µM
19 | C/C=C/c1c(OC(C)CC)c(=O)n(C)c2cnc(Nc3ccc(C(=O)NC4CCN(C)CC4)cc3OC)nc12 (stereo not shown) [Example 40, 4-({7-sec-butoxy-5-methyl-6-oxo-8-[(1E)-prop-1-en-1-yl]-5,6-dihydro-pyrido[3,2-d]pyrimidin-2-yl}amino)-3-methoxy-N-(1-methylpiperidin-4-yl)benzamide] | < 0.1 µM
20 | C/C=C/c1c(OCC(C)C)c(=O)n(C)c2cnc(Nc3ccc(C(=O)NC4CCN(C)CC4)cc3OC)nc12 [Example 41, 4-({7-isobutoxy-5-methyl-6-oxo-8-[(1E)-prop-1-en-1-yl]-5,6-dihydro-pyrido[3,2-d]pyrimidin-2-yl}amino)-3-methoxy-N-(1-methylpiperidin-4-yl)benzamide] | < 0.01 µM
21 | C/C=C/c1c(OCC2CCCC2)c(=O)n(C)c2cnc(Nc3ccc(C(=O)NC4CCN(C)CC4)cc3OC)nc12 [Example 42, 4-({7-(cyclopentylmethoxy)-5-methyl-6-oxo-8-[(1E)-prop-1-en-1-yl]-5,6-dihydropyrido[3,2-d]pyrimidin-2-yl}amino)-3-methoxy-N-(1-methylpiperidin-4-yl)benzamide] | < 0.1 µM
22 | C/C=C/c1c(OC2CCC2)c(=O)n(C)c2cnc(Nc3ccc(C(=O)NC4CCN(C)CC4)cc3OC)nc12 [Example 43, 4-({7-(cyclobutyloxy)-5-methyl-6-oxo-8-[(1E)-prop-1-en-1-yl]-5,6-dihydropyrido[3,2-d]pyrimidin-2-yl}amino)-3-methoxy-N-(1-methylpiperidin-4-yl)benzamide] | < 0.01 µM
23 | CCOc1c(-c2ncco2)c2nc(Nc3ccc(C(=O)NC4CCN(C)CC4)cc3OC)ncc2n(C)c1=O [Example 44, 4-{[7-ethoxy-5-methyl-8-(1,3-oxazol-2-yl)-6-oxo-5,6-dihydropyrido[3,2-d]pyrimidin-2-yl]amino}-3-methoxy-N-(1-methylpiperidin-4-yl)benzamide] | < 0.1 µM
24 | C/C=C/c1c(OC(C)C2CC2)c(=O)n(C)c2cnc(Nc3ccc(C(=O)NC4CCN(C)CC4)cc3OC)nc12 (stereo not shown) [Example 45, 4-({7-(1-cyclopropylethoxy)-5-methyl-6-oxo-8-[(1E)-prop-1-en-1-yl]-5,6-dihydropyrido[3,2-d]pyrimidin-2-yl}amino)-3-methoxy-N-(1-methylpiperidin-4-yl)benzamide] | < 0.1 µM
25 | C#Cc1c(OC)c(=O)n(C)c2cnc(Nc3ccc(C(=O)NC4CCN(C)CC4)cc3OC)nc12 [Example 46, 4-[(8-ethynyl-7-methoxy-5-methyl-6-oxo-5,6-dihydropyrido[3,2-d]pyri-midin-2-yl)amino]-3-methoxy-N-(1-methylpiperidin-4-yl)benzamide] | < 0.1 µM
